Molecular target: TRKA (Homo sapiens (Human), UniProt P04629)
Test: Isolated TRK enzyme assay (HTRF KinEASE-TK), TRKA
Format: biochemical
Settings: read-out: Trka enzyme (IC50)

Sequence of TRKA (P04629 441-796): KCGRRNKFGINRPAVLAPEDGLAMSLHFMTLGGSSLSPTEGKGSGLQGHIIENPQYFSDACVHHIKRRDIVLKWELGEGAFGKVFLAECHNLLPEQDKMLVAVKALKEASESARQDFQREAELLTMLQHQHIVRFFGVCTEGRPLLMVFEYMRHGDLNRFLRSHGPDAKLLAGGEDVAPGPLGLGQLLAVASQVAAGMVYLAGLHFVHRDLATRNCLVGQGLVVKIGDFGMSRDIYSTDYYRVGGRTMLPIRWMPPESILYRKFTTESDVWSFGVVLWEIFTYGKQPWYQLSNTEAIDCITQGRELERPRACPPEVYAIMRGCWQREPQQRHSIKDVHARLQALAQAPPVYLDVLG

Row | Structure (SMILES) | IC50
1 | CC(C)n1cc(C(=O)c2cncc(NC(=O)c3cnnc4ccccc34)c2)c2cncnc21 [Example 426, Cinnoline-4-carboxylic acid [5-(7-isopropyl-7H-pyrrolo[2,3-d]pyrimidine-5-carbonyl)-pyridin-3-yl]-amide] | 228 nM
2 | Cc1[nH]c2ccccc2c1CC(=O)Nc1cncc(C(=O)c2cn(C(C)C)c3ncncc23)c1 [Example 116, N-{5-[(7-isopropyl-7H-pyrrolo[2,3-d]pyrimidin-5-yl)carbonyl]pyridin-3-yl}-2-(2-methyl-1H-indol-3-yl)acetamide] | 103 nM
3 | CC(C)n1cc(C(=O)c2cncc(NC(=O)c3c[nH]nc3C3CCC3)c2)c2cncnc21 [Example 389, 3-Cyclobutyl-1H-pyrazole-4-carboxylic acid [5-(7-isopropyl-7H-pyrrolo[2,3-d]pyrimidine-5-carbonyl)-pyridin-3-yl]-amide] | 84.3 nM
4 | Cc1cn(CC(=O)Nc2cncc(C(=O)c3cn(C(C)C)c4ncncc34)c2)nn1 [Example 162, N-{5-[(7-isopropyl-7H-pyrrolo[2,3-d]pyrimidin-5-yl)carbonyl]pyridin-3-yl}-2-(4-methyl-1H-1,2,3-triazol-1-yl)acetamide] | 324 nM
5 | COc1ccc2[nH]c(C)c(CC(=O)Nc3cncc(C(=O)c4cn(C(C)C)c5ncncc45)c3)c2c1 [Example 156, N-{5-[(7-isopropyl-7H-pyrrolo[2,3-d]pyrimidin-5-yl)carbonyl]pyridin-3-yl}-2-(5-methoxy-2-methyl-1H-indol-3-yl)acetamide] | 133 nM
6 | CC(C)n1cc(C(=O)c2cncc(NC(=O)[C@@H](N)Cc3ccc(C(=O)c4ccccc4)cc3)c2)c2cncnc21 [Example 287, 4-benzoyl-N-{5-[(7-isopropyl-7H-pyrrolo[2,3-d]pyrimidin-5-yl)carbonyl]pyridin-3-yl}-L-phenylalaninamide] | 4350 nM
7 | COc1ccc2[nH]c(C(=O)Nc3cncc(C(=O)c4cn(C(C)C)c5ncncc45)c3)nc2c1 [Example 442, 5-Methoxy-1H-benzimidazole-2-carboxylic acid [5-(7-isopropyl-7H-pyrrolo[2,3-d]pyrimidine-5-carbonyl)-pyridin-3-yl]amide] | 36.6 nM
8 | COc1cccc(CC(=O)Nc2cncc(C(=O)c3cn(C)c4ncncc34)c2)c1 [Example 175, 2-(3-methoxyphenyl)-N-{5-[(7-methyl-7H-pyrrolo[2,3-d]pyrimidin-5-yl)carbonyl]pyridin-3-yl}acetamide] | 2590 nM
9 | CC(C)n1cc(C(=O)c2cncc(NC(=O)Cc3cccc(CN4CC(F)C4)c3)c2)c2cncnc21 [Example 267, 2-{3-[(3-fluoroazetidin-1-yl)methyl]phenyl}-N-{5-[(7-isopropyl-7H-pyrrolo[2,3-d]pyrimidin-5-yl)carbonyl]pyridin-3-yl}acetamide] | 2120 nM
10 | CC(C)n1cc(C(=O)c2cncc(NC(=O)Cc3ccc(C(=O)c4ccccc4)cc3)c2)c2cncnc21 [Example 289, 2-(4-benzoylphenyl)-N-(5-(7-isopropyl-7H-pyrrolo[2,3-d]pyrimidine-5-carbonyl)pyridin-3-yl)acetamide] | 1370 nM
11 | CC(C)n1cc(C(=O)c2cncc(NC(=O)Cc3ccccn3)c2)c2cncnc21 [Example 151, N-{5-[(7-isopropyl-7H-pyrrolo[2,3-d]pyrimidin-5-yl)carbonyl]pyridin-3-yl}-2-pyridin-2-ylacetamide] | 232 nM
12 | CCc1cc(C(=O)Nc2cncc(C(=O)c3cn(C(C)C)c4ncncc34)c2)on1 [Example 408, 3-Ethyl-isoxazole-5-carboxylic acid[5-(7-isopropyl-7H-pyrrolo[2,3-d]pyrimidine-5-carbonyl)-pyridin-3-yl]-amide] | 654 nM
13 | CC(C)(C)n1cc(C(=O)c2cncc(NC(=O)Cc3cccc(S(C)(=O)=O)c3)c2)c2cncnc21 [Example 200, N-{5-[(7-tert-butyl-7H-pyrrolo[2,3-d]pyrimidin-5-yl)carbonyl]pyridin-3-yl}-2-[3-(methylsulfonyl)phenyl]acetamide] | 10.1 nM
14 | CC(C)n1cc(C(=O)c2c[nH]c(=O)c(NC(=O)Cc3ccc(Cl)cn3)c2)c2cncnc21 [Example 590, 2-(5-chloropyridin-2-yl)-N-(2-oxo-5-{[7-(propan-2-yl)-7H-pyrrolo[2,3-d]pyrimidin-5-yl]carbonyl}-1,2-dihydropyridin-3-yl)acetamide] | 71.2 nM
15 | CC(C)n1cc(C(=O)c2cncc(NC(=O)Cn3ccc(-c4ccccn4)n3)c2)c2cncnc21 [Example 79, N-{5-[(7-isopropyl-7H-pyrrolo[2,3-d]pyrimidin-5-yl)carbonyl]pyridin-3-yl}-2-(3-pyridin-2-yl-1H-pyrazol-1-yl)acetamide] | 1580 nM
16 | CC(C)n1cc(C(=O)c2cncc(NC(=O)c3ccc4cc[nH]c4n3)c2)c2cncnc21 [Example 418, 1H-Pyrrolo[2,3-b]pyridine-6-carboxylic acid [5-(7-isopropyl-7H-pyrrolo[2,3-d]pyrimidine-5-carbonyl)-pyridin-3-yl]-amide] | 40.2 nM
17 | Cc1[nH]c2ccc(F)cc2c1CC(=O)Nc1cncc(C(=O)c2cn(C(C)C)c3ncncc23)c1 [Example 125, 2-(5-fluoro-2-methyl-1H-indol-3-yl)-N-{5-[(7-isopropyl-7H-pyrrolo[2,3-d]pyrimidin-5-yl)carbonyl]pyridin-3-yl}acetamide] | 148 nM

Second part, the compound after the results:

Row | IC50 | Structure (SMILES)
18 | 42.7 nM | CC(C)n1cc(C(=O)c2cncc(NC(=O)Cc3ccc(C#N)cn3)c2)c2cnc(N)nc21 [Example 255, N-{5-[(2-amino-7-isopropyl-7H-pyrrolo[2,3-d]pyrimidin-5-yl)carbonyl]pyridin-3-yl}-2-(5-cyanopyridin-2-yl)acetamide]
19 | 6960 nM | Cc1nc(C)c(C(=O)Nc2cncc(C(=O)c3cn(C(C)C)c4ncncc34)c2)o1 [Example 456, 2,4-Dimethyl-oxazole-5-carboxylic acid [5-(7-isopropyl-7H-pyrrolo[2,3-d]pyrimidine-5-carbonyl)-pyridin-3-yl]-amide]
20 | 908 nM | CC(C)n1cc(C(=O)c2cncc(NC(=O)Cc3cnc4cccnc4c3)c2)c2cncnc21 [Example 82, N-{5-[(7-isopropyl-7H-pyrrolo[2,3-d]pyrimidin-5-yl)carbonyl]pyridin-3-yl}-2-(1,5-naphthyridin-3-yl)acetamide]
21 | 53 nM | CC(C)n1cc(C(=O)c2cncc(NC(=O)Cn3ccc(-c4cccs4)n3)c2)c2cncnc21 [Example 120, N-{5-[(7-isopropyl-7H-pyrrolo[2,3-d]pyrimidin-5-yl)carbonyl]pyridin-3-yl}-2-[3-(2-thienyl)-1H-pyrazol-1-yl]acetamide]
22 | 1610 nM | CC(C)(CO)n1cc(C(=O)c2cncc(NC(=O)Cc3ncc(Cl)cc3F)c2)c2cnc(N)nc21 [Example 560, N-{5-[2-Amino-7-(2-hydroxy-1,1-dimethyl-ethyl)-7H-pyrrolo[2,3-d]pyrimidine-5-carbonyl]-pyridin-3-yl}-2-(5-chloro-3-fluoro-pyridin-2-yl)-acetamide]
23 | 270 nM | CC(C)(CO)n1cc(C(=O)c2cncc(NC(=O)Cn3cnc4ccccc4c3=O)c2)c2cnc(N)nc21 [Example 554, N-{5-[2-Amino-7-(2-hydroxy-1,1-dimethyl-ethyl)-7H-pyrrolo[2,3-d]pyrimidine-5-carbonyl]-pyridin-3-yl}-2-(4-oxo-4H-quinazolin-3-yl)-acetamide]
24 | 5.18 nM | CC(C)n1cc(C(=O)c2cncc(NC(=O)Cn3ccc(C(F)(F)F)n3)c2)c2cnc(N)nc21 [Example 252, N-{5-[(2-amino-7-isopropyl-7H-pyrrolo[2,3-d]pyrimidin-5-yl)carbonyl]pyridin-3-yl}-2-[3-(trifluoromethyl)-1H-pyrazol-1-yl]acetamide]
25 | 55.6 nM | CC(C)n1cc(C(=O)c2cncc(NC(=O)Cc3ccc(F)cc3)c2)c2cncnc21 [Example 65, 2-(4-fluorophenyl)-N-{5-[(7-isopropyl-7H-pyrrolo[2,3-d]pyrimidin-5-yl)carbonyl]pyridin-3-yl}acetamide]
26 | 0.681 nM | Nc1ncc2c(C(=O)c3cncc(NC(=O)Cc4ccc(Cl)cn4)c3)cn(C34CC(C3)C4)c2n1 [Example 583, N-[5-(2-Amino-7-bicyclo[1.1.1]pent-1-yl-7H-pyrrolo[2,3-d]pyrimidine-5-carbonyl)-pyridin-3-yl]-2-(5-chloro-pyridin-2-yl)-acetamide]
27 | 71 nM | CC(C)n1cc(C(=O)c2cncc(NC(=O)Cc3cccc(S(C)(=O)=O)c3)c2)c2cnc(N)nc21 [Example 247, N-{5-[(2-amino-7-isopropyl-7H-pyrrolo[2,3-d]pyrimidin-5-yl)carbonyl]pyridin-3-yl}-2-[3-(methylsulfonyl)phenyl]acetamide]
28 | 25.2 nM | CC(CO)(CO)n1cc(C(=O)c2cncc(NC(=O)Cc3ccc(C(F)(F)F)cc3)c2)c2cncnc21 [Example 236, N-[5-({7-[2-hydroxy-1-(hydroxymethyl)-1-methylethyl]-7H-pyrrolo[2,3-d]pyrimidin-5-yl}carbonyl)pyridin-3-yl]-2-[4-(trifluoromethyl)phenyl]acetamide]
29 | 52.6 nM | CC(C)n1cc(CC(=O)Nc2cncc(C(=O)c3cn(C(C)C)c4nc(N)ncc34)c2)c(C(F)(F)F)n1 [Example 254, N-{5-[(2-amino-7-isopropyl-7H-pyrrolo[2,3-d]pyrimidin-5-yl)carbonyl]pyridin-3-yl}-2-[1-isopropyl-3-(trifluoromethyl)-1H-pyrazol-4-yl]acetamide]
30 | 2550 nM | CC(C)n1cc(C(=O)c2cncc(NC(=O)Cc3cccnc3)c2)c2cncnc21 [Example 118, N-{5-[(7-isopropyl-7H-pyrrolo[2,3-d]pyrimidin-5-yl)carbonyl]pyridin-3-yl}-2-pyridin-3-ylacetamide]
31 | 65 nM | Cc1cccc2cc(C(=O)Nc3cncc(C(=O)c4cn(C(C)C)c5ncncc45)c3)nn12 [Example 476, 7-Methyl-pyrazolo[1,5-a]pyridine-2-carboxylic acid [5-(7-isopropyl-7H-pyrrolo[2,3-d]pyrimidine-5-carbonyl)-pyridin-3-yl]-amide]
32 | 451 nM | COc1ccc2c(ccn2CC(=O)Nc2cncc(C(=O)c3cn(C(C)C)c4ncncc34)c2)c1 [Example 340, N-{5-[(7-isopropyl-7H-pyrrolo[2,3-d]pyrimidin-5-yl)carbonyl]-pyridin-3-yl}-2-(5-methoxy-1H-indol-1-yl)acetamide]

— patent US8846698B2, “Pyrrolo[2,3-d]pyrimidine tropomysin-related kinase inhibitors” (Pfizer Limited, priority 2011, dated 2014)
